In one experiment the target is T1, IDH1-R132H (Homo sapiens, UniProt O75874, R132H).
T1 construct: expressed in transfected cells; host or cells: U87MG cells (U87MGR132H)
Nature of the experiment: Fluorescent determination of IDH1-R132H cell activity (2-HG in U87MGR132H cells). The format is cell-based. As to conditions: 2-HG inhibition in U87MGR132H cells transfected with IDH1-R132H mutant plasmid.

A further experiment concerns the target T2, IDH2-R140Q (Homo sapiens, UniProt P48735, R140Q).
T2 construct: expressed in transfected cells
T2 sequence (P48735 40-452 R140Q): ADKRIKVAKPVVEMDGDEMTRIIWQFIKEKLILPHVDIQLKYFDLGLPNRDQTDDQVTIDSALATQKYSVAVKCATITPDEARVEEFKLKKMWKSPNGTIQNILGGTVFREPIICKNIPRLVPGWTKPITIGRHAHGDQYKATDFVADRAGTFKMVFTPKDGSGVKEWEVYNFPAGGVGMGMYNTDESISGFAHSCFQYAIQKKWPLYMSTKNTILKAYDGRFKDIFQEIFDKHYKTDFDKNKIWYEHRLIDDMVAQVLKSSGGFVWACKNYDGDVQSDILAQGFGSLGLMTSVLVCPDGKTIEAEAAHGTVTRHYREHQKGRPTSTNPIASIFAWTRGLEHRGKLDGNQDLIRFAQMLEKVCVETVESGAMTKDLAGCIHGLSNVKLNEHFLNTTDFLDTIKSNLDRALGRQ
Nature of the experiment: Fluorescent determination of IDH2-R140Q cell activity (2-HG in U87MGR140Q cells). As to conditions: 72 hours incubation, read-out: IC50 (2-HG inhibition). The format is cell-based.

As usually defined, the IC50 is the concentration needed to halve the response being measured.

T1 sequence (O75874 whole entry R132H): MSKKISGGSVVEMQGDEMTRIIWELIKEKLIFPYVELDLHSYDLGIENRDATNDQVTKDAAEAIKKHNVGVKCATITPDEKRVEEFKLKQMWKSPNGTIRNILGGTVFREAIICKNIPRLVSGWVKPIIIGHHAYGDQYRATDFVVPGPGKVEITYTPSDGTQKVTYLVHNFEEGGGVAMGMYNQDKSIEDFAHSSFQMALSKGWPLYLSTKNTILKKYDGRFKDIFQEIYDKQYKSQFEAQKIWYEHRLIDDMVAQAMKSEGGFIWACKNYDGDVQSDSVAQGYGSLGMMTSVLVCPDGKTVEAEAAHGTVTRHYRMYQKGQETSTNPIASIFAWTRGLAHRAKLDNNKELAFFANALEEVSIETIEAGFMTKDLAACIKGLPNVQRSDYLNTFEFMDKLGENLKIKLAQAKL

Take `C[C@@H](Nc1nc(NCC2CC2)nc(C2=C(F)C(O)C(F)(F)CC2)n1)C(F)(F)F` (mixture of isomers) [Compound 209]: the IC50 against IDH1-R132H stood at 1760 nM; on IDH2-R140Q, 78 nM.
In the same order, the values of `C[C@@H](Nc1nc(N[C@H](C)C(F)(F)F)nc(C2=C(F)C(O)C(F)(F)CC2)n1)C(F)(F)F` (single isomer, unassigned) [Compound 198] are 1890 nM and 845 nM.
Regarding `CCCNc1nc(N[C@H](C)C(F)(F)F)nc(C2=C(F)C(O)C(F)(F)CC2)n1` (mixture of isomers) [Compound 210], the figures for the IC50 against IDH1-R132H and at IDH2-R140Q were 4340 nM and 93 nM, respectively.
For `OC1CCCCC(c2nc(NC3CC(F)(F)C3)nc(NC3CC(F)(F)C3)n2)=C1F` (centres unmarked) [Compound 39, (*)3-(4,6-Bis((3,3-difluorocyclobutyl)amino)-1,3,5-triazin-2-yl)-2-fluorocyclohept-2-en-1-ol], the IC50 against IDH1-R132H was determined as 1910 nM; at IDH2-R140Q, 164 nM.
On to `[2H]C1([2H])CCC(c2nc(NOC(C)(C)C)nc(Nc3ccnc(C(F)(F)F)c3)n2)=C(F)C1O` (centres unmarked) [Compound 89], for which the values for the IC50 against IDH1-R132H and on IDH2-R140Q were 2960 nM and 57 nM, respectively.
Regarding `C[C@@H](Nc1nc(NC2CC2)nc(C2=C(F)C(O)C(F)(F)CC2)n1)C(F)(F)F` (mixture of isomers) [Compound 238], the IC50 at IDH1-R132H is 7360 nM; on IDH2-R140Q it was 139 nM.
Regarding `CCONc1nc(Nc2ccnc(C(F)(F)F)c2)nc(C2=C(F)C(O)C(F)(F)CC2)n1` (centres unmarked) [Compound 212], the IC50 was more than 10000 nM against IDH1-R132H and 63 nM on IDH2-R140Q.
For the molecule `OC1C(F)=C(c2nc(Nc3ccnc(C(F)(F)F)c3)nc(NC(C3CC3)C3CC3)n2)CCC1(F)F` (centres unmarked) [Compound 220], the IC50 was found to be 2880 nM at IDH1-R132H and 59 nM at IDH2-R140Q.
In the same order, the values of `C[C@@H](Nc1nc(NCC2CC2)nc(C2=C(F)C(O)C(F)(F)CC2)n1)C(F)(F)F` (stereo partly drawn) [Compound 234, 3-(4-((Cyclopropylmethyl)amino)-6-(((R)-1,1,1-trifluoropropan-2-yl)amino)-1,3,5-triazin-2-yl)-2,6,6-trifluorocyclohex-2-en-1-ol] are 1760 nM and 78 nM.
As for `[2H]C1(O)C(F)=C(c2nc(NC3CC3)nc(N[C@@H](C)C(F)(F)F)n2)CCC1(F)F` (mixture of isomers) [Compound 278], the 50% inhibitory concentration (IC50) was more than 10000 nM against IDH1-R132H and 148 nM at IDH2-R140Q.
The corresponding values for `C[C@@H](Nc1nc(N[C@H](C)C(F)(F)F)nc(C2=C(F)C(O)CCC2)n1)C(F)(F)F` (stereo partly drawn) [Compound 82, (*)3-(4,6-Bis(((R)-1,1,1-trifluoropropan-2-yl)amino)-1,3,5-triazin-2-yl)-2-fluorocyclohex-2-en-6,6-D2-1-ol] are 181 nM and 75 nM.
`C[C@@H](Nc1nc(N[C@H](C)C(F)(F)F)nc(C2=C(F)C(O)CCC2)n1)C(F)(F)F` (stereo partly drawn) [Compound 83, 3-(4,6-bis(((R)-1,1,1-trifluoropropan-2-yl)amino)-1,3,5-triazin-2-yl)-2-fluorocyclohex-2-en-1,6,6-D3-1-ol]: the figures for the 50% inhibitory concentration (IC50) against IDH1-R132H and on IDH2-R140Q were 282 nM and 203 nM, respectively.
The corresponding values for `[2H]C1(O)C(F)=C(c2nc(NC(C)C)nc(NC3CC(F)(F)C3)n2)CCC1(F)F` [Compound 274, 3-(4-((3,3-difluorocyclobutyl)amino)-6-(isopropylamino)-1,3,5-triazin-2-yl)-2,6,6-trifluorocyclohex-2-en-1-D-1-ol] are 3280 nM and 84 nM.
On to `C[C@H](Nc1nc(NC2CC(F)(F)C2)nc(C2=C(F)C(O)CCC2)n1)C(F)(F)F` (mixture of isomers) [Compound 32], for which the values for the IC50 against IDH1-R132H and at IDH2-R140Q were 610 nM and 80 nM, respectively.
Consider `CC(C)(C)ONc1nc(Nc2ccnc(Cl)c2)nc(C2=C(F)C(O)C(F)(F)CC2)n1` (centres unmarked) [Compound 216], for which the IC50 amounted to 8520 nM on IDH1-R132H and 82 nM at IDH2-R140Q.
In the same order, the values of `OC1CCCC(c2nc(NCC(F)(F)F)nc(NC3CC(F)(F)C3)n2)=C1F` (centres unmarked) [Compound 241] are 2060 nM and 100 nM.

The record behind these values is US12234211B2, “Cycloolefin substituted heteroaromatic compounds and their use” (HUTCHISON MEDIPHARMA LIMITED, priority 2017, dated 2025).
